{"source": "patent US12099051B2", "about": "(priority 2022, dated 2024)", "key": {"[1]": {"tested_on": "Caenorhabditis elegans (N2 wild-type)", "assay": "whole plant or invertebrate", "format": "in vivo"}, "[2]": {"tested_on": "Caenorhabditis elegans (N2 wild-type)", "details": "in vivo"}, "Caenorhabditis elegans": {"tested_on": "Caenorhabditis elegans", "details": "in vivo"}, "[3]": {"tested_on": "Caenorhabditis elegans mutant strain Daf-16 (mu86)", "details": "in vivo"}, "[4]": {"tested_on": "Caenorhabditis elegans mutant strain Daf-2 (e1370)", "details": "in vivo"}, "[5]": {"tested_on": "Caenorhabditis elegans mutant strain Daf-16 (mu86)", "details": "in vivo", "remark": "listed apart in the source"}, "[6]": {"tested_on": "Caenorhabditis elegans mutant strain Daf-2 (e1370)", "details": "in vivo", "remark": "listed apart in the source"}}, "note": "Values joined by “and” are separate entries in the source; they are usually repeats but may differ in a detail not shown here. Equal entries are not always repeated."}
{"smiles": "O=C1C=C2C(=CCOC2O)O1", "note": "(stereo not shown) [PAT, Patulin]", "values": [{"measurement": "EC50", "setting": "[1]; Caenorhabditis elegans, 24 h", "value": 44.2, "unit": "µg/mL"}, {"measurement": "body length ratio", "setting": "[1]; in vivo", "value": "64.45% and 55.55%"}, {"measurement": "concentration at which nematode's body length is significantly confined (P<0.001)", "setting": "[1]; in vivo", "value": 25, "unit": "µg/mL"}, {"measurement": "concentration at which nematode's spawning rate is significantly confined (P<0.001)", "setting": "[2]", "value": 5, "unit": "µg/mL"}, {"measurement": "spawning rate", "setting": "[2]", "value": 49.41, "unit": "%"}, {"measurement": "relative fluorescence intensity ratio (ROS)", "setting": "Caenorhabditis elegans", "value": "136.92% and 149.43%"}, {"measurement": "body length ratio of Daf-16 mutant strain compared with N2 wild type", "setting": "[3]", "value": "higher body length ratio than the N2 wild type"}, {"measurement": "effect of Daf-2 gene silencing on developmental toxicity", "setting": "[4]", "value": "does not slow down the developmental toxicity"}, {"measurement": "spawning rate of Daf-16 mutant strain compared with N2 wild-type", "setting": "[5]", "value": "higher spawning rate than the N2 wild-type"}, {"measurement": "spawning rate of Daf-2 mutant strain compared with N2", "setting": "[6]", "value": "no significant difference from N2"}]}
